The values below come from PubChem BioAssay AID434987 (Southern Research Specialized Biocontainment Screening …, 2010).

Broadly, the IC50 is the point on the concentration scale where inhibition reaches its midpoint. A word on the IC90: it is the concentration needed for an effect of 90%. A lower IC90 goes with greater potency.

The source made the active and inactive calls. No rule for the calls is given here.

The subject of the assay is M. tuberculosis H37Rv growth inhibition with meropenem. In words: dose response, H37Rv, with and without meropenem (AID 434987).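 Also: growth over 7 days at 37 °C before Alamar Blue read on day 9.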
Where [1] appears, read: M. tuberculosis H37Rv growth inhibition, measured here: IC50 without meropenem.
Setting [2] is: M. tuberculosis H37Rv growth inhibition, measured here: IC90 without meropenem.
Where [3] appears, read: measured here: IC90 with meropenem.

Consider `COC(=O)/C(=C\Nc1ccc(Cl)c2ccccc12)c1ncc(C(F)(F)F)cc1Cl`, for which the 50% inhibitory concentration (IC50) was 36 µM. The compound also showed a half-maximal inhibitory concentration (IC50) under setting [1] above 100 µM. Also, the IC90 under setting [2] is above 100 µM. Also, the IC90 under setting [3] is above 100 µM.

Consider `CCC(C(=O)Nc1ccccc1N1CCCC1)c1ccccc1` (stereo not drawn), for which the IC50 is 48.8 µM (inactive). This compound came in with a 50% inhibitory concentration (IC50) under setting [1] above 100 µM. The IC90 under setting [2] is above 100 µM. The IC90 under setting [3] was above 100 µM.

Take `O=C(Cc1ccccc1)NC(=S)Nc1ccc(N2CCCCC2)cc1`: the IC50 was > 100 µM (inactive). Under setting [1], this compound registered an IC50 above 100 µM. The compound also returned an IC90 under setting [2] above 100 µM. The compound further yielded an IC90 under setting [3] above 100 µM.

In the case of `Cc1ccccc1CSc1nnc(C)c(=O)n1N`, the IC50 is 19.5 µM (inactive). The compound also yielded a half-maximal inhibitory concentration (IC50) under setting [1] of 45.4 µM. The same compound had a concentration for an effect of 90% (IC90) under setting [2] above 100 µM. The concentration for an effect of 90% (IC90) under setting [3] amounted to 32.3 µM.

For `Cc1ccc(NC(=O)CSc2nnc([C@@H]3CCCN3C(=O)OC(C)(C)C)o2)c(C)c1`, the IC50 was 78.5 µM (inactive). Under setting [1], the IC50 stood at 86.5 µM. The same compound returned an IC90 under setting [2] above 100 µM. The IC90 under setting [3] is above 100 µM.

For the compound `CC(=O)c1c(C)[nH]c(C(=O)OCC(=O)Nc2nnc(-c3ccccc3)o2)c1C`, the 50% inhibitory concentration (IC50) was 4.19 µM. Besides, the IC50 under setting [1] was above 100 µM. Under setting [2], this compound registered an IC90 above 100 µM. Besides, under setting [3], the IC90 was above 100 µM.

`CC(=O)Nc1ccc(SCC(=O)c2cc(C)n(CC(F)(F)F)c2C)cc1`: the IC50 is 47.7 µM (inactive). The IC50 under setting [1] came out at 53.5 µM. Under setting [2], this compound returned an IC90 above 100 µM. Also, the 90% effect concentration (IC90) under setting [3] is above 100 µM.

`COc1ccccc1N1CCN(/N=C/c2cccc(OC)c2OC)CC1`: the IC50 was > 100 µM (inactive). This compound yielded a 50% inhibitory concentration (IC50) under setting [1] above 100 µM. Under setting [2], this compound registered an IC90 above 100 µM. The IC90 under setting [3] is above 100 µM.

Regarding `Cc1ccccc1/C=N\NC(=O)c1csnn1`, the IC50 was 21.6 µM. This compound also displayed a half-inhibitory concentration (IC50) under setting [1] above 100 µM. The compound also returned a concentration for an effect of 90% (IC90) under setting [2] above 100 µM. Besides, the 90% effect concentration (IC90) under setting [3] was above 100 µM.

For `c1ccc(OCc2nnc(-c3ccccc3)o2)cc1`, the IC50 was 1.4 µM. This compound displayed a concentration for half-maximal inhibition (IC50) under setting [1] of 80.4 µM. This compound yielded an IC90 under setting [2] above 100 µM. The same compound returned an IC90 under setting [3] above 100 µM.

With `CN(C)/N=C/c1ccc(/C=N/NC(N)=S)o1`, the 50% inhibitory concentration (IC50) is 15.2 µM. The compound further had an IC50 under setting [1] of 90.8 µM. Further, under setting [2], the IC90 was above 100 µM. This compound had a concentration for an effect of 90% (IC90) under setting [3] of 43.3 µM.

Turning to `CCOC(=O)c1c(C)nc2sc(C(=O)Nc3ccccc3)c(N)c2c1-c1ccc(OC)cc1`, the IC50 was > 100 µM (inactive). Under setting [1], this compound came in with a half-maximal inhibitory concentration (IC50) above 100 µM. The same compound came in with a 90% effect concentration (IC90) under setting [2] above 100 µM. In addition, the IC90 under setting [3] is above 100 µM.

For the compound `CCC(=O)Oc1oc(-c2ccccc2)nc1C=Nc1ccc(C)cc1`, the IC50 is > 100 µM (inactive). In addition, the IC50 under setting [1] is above 100 µM. Further, under setting [2], the IC90 is above 100 µM. Under setting [3], the IC90 was above 100 µM.

For `O=C(NC1CCCCCCC1)c1ccc(Br)cc1`, the IC50 was > 100 µM (inactive). The 50% inhibitory concentration (IC50) under setting [1] was above 100 µM. This compound registered a concentration for an effect of 90% (IC90) under setting [2] above 100 µM. Under setting [3], this compound yielded an IC90 above 100 µM.

Consider `Cc1ccc(SCc2c(-c3ccccc3)nn(C)c2Cl)cc1`, for which the concentration for half-maximal inhibition (IC50) is 20.9 µM. In addition, under setting [1], the IC50 came to 58.7 µM. Besides, the 90% effect concentration (IC90) under setting [2] is above 100 µM. Under setting [3], the IC90 was above 100 µM.

With `O=C(/C=C/c1ccccn1)c1cc(Br)ccc1O`, the IC50 is 21.8 µM (inactive). Under setting [1], this compound yielded an IC50 of 37.4 µM. For the same compound, the 90% effect concentration (IC90) under setting [2] was found to be 58.6 µM. Also, under setting [3], the IC90 was 45.1 µM.

With `c1ccc(-n2c3ccccc3c3ccccc32)cc1`, the IC50 is 3.27 µM. The IC50 under setting [1] was above 100 µM. The IC90 under setting [2] was above 100 µM. The concentration for an effect of 90% (IC90) under setting [3] came to 22.7 µM.

Regarding `COC(=O)[C@@]1(Cc2ccc(F)cc2)[C@H]2c3cc(C(=O)N(C)C)n(Cc4ccc(OC)c(OC)c4)c3C[C@H]2CN1C(=O)c1ccccc1`, the IC50 was > 100 µM (inactive). The compound further gave an IC50 under setting [1] above 100 µM. Also, the 90% effect concentration (IC90) under setting [2] is above 100 µM. Under setting [3], this compound gave an IC90 above 100 µM.

On to `COc1cc(NC(=O)c2ccccc2)c(OC)cc1NC(=O)CN1CCOCC1`, for which the IC50 is 14.5 µM (inactive). Moreover, the IC50 under setting [1] was 32.1 µM. In addition, the concentration for an effect of 90% (IC90) under setting [2] is above 100 µM. Also, the 90% effect concentration (IC90) under setting [3] was determined as 69.2 µM.

`CCOC(=O)CSc1nnc(CNC(=O)c2cccs2)n1CCc1ccccc1`: the IC50 was 20.1 µM (inactive). Under setting [1], the half-inhibitory concentration (IC50) was 35.2 µM. Also, the IC90 under setting [2] stood at 55.8 µM. The 90% effect concentration (IC90) under setting [3] is 49.5 µM.

`CCCC(C)NC(=O)c1ccc(OCc2ccc(Cl)cc2)c(OC)c1` (stereo not drawn): the half-inhibitory concentration (IC50) was 7.56 µM. For the same compound, under setting [1], the IC50 came out at 36.2 µM. The compound also came in with an IC90 under setting [2] above 100 µM. The compound also yielded an IC90 under setting [3] of 11.6 µM.

`CN(C)c1ccc(/C=N/NC(=O)c2cc(-c3ccc4c(c3)OCO4)n[nH]2)cc1`: the IC50 is > 100 µM (inactive). Under setting [1], this compound showed an IC50 above 100 µM. Also, the IC90 under setting [2] is above 100 µM. The compound further gave a concentration for an effect of 90% (IC90) under setting [3] above 100 µM.
